# Measured values: ChEMBL document CHEMBL5316268 (J Med Chem, 2023)
# Activity calls are given as the source filed them. The rule behind the calls is not given here.
# Experiments:
# [1] = system: A-375; test: Antiproliferative activity against human A-375 cells at 100 uM incubated for 3 days by Cell Titer-Glo assay; assay type: functional, cell-based; settings: time 3.0 day
# [2] = target: T1, 5'-nucleotidase (Homo sapiens, UniProt P21589); test: Inhibition of CD73 in human plasma incubated for 15 mins in presence of 15N5-AMP by LC/MS analysis; assay type: cell-free
# T1 sequence (P21589 whole entry, the tested form may be a part): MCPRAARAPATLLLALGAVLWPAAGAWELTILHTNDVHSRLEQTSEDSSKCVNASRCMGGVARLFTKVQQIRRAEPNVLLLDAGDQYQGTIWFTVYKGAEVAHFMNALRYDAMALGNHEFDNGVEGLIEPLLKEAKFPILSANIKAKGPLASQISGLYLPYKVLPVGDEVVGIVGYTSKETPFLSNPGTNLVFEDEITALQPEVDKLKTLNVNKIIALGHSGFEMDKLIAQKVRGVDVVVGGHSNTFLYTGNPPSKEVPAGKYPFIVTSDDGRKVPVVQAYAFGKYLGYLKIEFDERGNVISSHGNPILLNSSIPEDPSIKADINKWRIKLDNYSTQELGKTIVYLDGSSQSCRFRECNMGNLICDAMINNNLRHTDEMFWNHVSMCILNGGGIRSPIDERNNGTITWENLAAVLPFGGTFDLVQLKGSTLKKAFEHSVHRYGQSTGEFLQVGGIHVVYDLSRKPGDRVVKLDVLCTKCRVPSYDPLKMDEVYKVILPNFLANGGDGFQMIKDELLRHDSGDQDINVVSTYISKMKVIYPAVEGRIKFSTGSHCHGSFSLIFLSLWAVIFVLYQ
# [3] = Selectivity ratio of IC50 for CD73 in human plasma to IC50 for C-terminal 6His-tagged recombinant human CD73 (27 to 547 residues) expressed in CHO cells; assay type: cell-based
# [4] = target: T2, 5'-nucleotidase (Mus musculus, UniProt Q61503); test: Inhibition of C-terminal 6His-tagged recombinant mouse CD73 (29 to 549 residues) expressed in CHO cells incubated for 1 hr by malachite green assay; assay type: cell-based
# T2 sequence (Q61503 whole entry): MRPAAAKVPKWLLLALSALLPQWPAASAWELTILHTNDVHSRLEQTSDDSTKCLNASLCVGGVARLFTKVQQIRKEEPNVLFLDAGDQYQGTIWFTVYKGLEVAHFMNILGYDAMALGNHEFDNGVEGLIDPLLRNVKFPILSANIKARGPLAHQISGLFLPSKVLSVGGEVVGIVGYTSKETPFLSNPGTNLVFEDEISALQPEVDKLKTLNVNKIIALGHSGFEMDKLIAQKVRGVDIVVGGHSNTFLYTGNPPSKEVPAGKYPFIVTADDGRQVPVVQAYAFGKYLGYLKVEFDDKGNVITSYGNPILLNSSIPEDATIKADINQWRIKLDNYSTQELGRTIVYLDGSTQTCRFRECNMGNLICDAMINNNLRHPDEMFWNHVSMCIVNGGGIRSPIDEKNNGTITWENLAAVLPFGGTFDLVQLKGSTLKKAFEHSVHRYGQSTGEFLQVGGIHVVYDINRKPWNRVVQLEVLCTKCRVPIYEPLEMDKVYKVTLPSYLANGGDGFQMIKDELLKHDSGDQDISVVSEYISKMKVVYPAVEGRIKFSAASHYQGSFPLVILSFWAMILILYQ
# [5] = target: T2, 5'-nucleotidase; test: Inhibition of CD73 in mouse plasma incubated for 5 mins in presence of 15N5-AMP by LC/MS analysis; assay type: cell-free
# [6] = target: T1, 5'-nucleotidase; test: Inhibition of CD73 in human plasma derived from ovarian cancer patient incubated for 15 mins in presence of 15N5-AMP by LC/MS analysis; assay type: cell-free
# [7] = target: T1, 5'-nucleotidase; test: Inhibition of CD73 in human plasma derived from TNBC cancer patient incubated for 15 mins in presence of 15N5-AMP by LC/MS analysis; assay type: cell-free
# [8] = target: T1, 5'-nucleotidase; test: Inhibition of CD73 in human plasma derived from esophageal cancer patient incubated for 15 mins in presence of 15N5-AMP by LC/MS analysis; assay type: cell-free
# [9] = Plasma protein binding in rat at 10 uM assessed as bound fraction; assay type: ADME, cell-free; settings: read-out: PPB (converted)
# [10] = Plasma protein binding in dog at 10 uM assessed as bound fraction; assay type: ADME, cell-free, Canis lupus familiaris; settings: read-out: PPB (converted)
# [11] = Plasma protein binding in human at 10 uM assessed as bound fraction; assay type: ADME, cell-free; settings: read-out: PPB (converted)
# [12] = Plasma protein binding in human assessed as unbound fraction; assay type: ADME, cell-free
# [13] = target: T3, Cytochrome P450 2B6 (Homo sapiens, UniProt P20813); test: Inhibition of human CYP2B6 at 10 uM; assay type: ADME
# T3 sequence (P20813 whole entry): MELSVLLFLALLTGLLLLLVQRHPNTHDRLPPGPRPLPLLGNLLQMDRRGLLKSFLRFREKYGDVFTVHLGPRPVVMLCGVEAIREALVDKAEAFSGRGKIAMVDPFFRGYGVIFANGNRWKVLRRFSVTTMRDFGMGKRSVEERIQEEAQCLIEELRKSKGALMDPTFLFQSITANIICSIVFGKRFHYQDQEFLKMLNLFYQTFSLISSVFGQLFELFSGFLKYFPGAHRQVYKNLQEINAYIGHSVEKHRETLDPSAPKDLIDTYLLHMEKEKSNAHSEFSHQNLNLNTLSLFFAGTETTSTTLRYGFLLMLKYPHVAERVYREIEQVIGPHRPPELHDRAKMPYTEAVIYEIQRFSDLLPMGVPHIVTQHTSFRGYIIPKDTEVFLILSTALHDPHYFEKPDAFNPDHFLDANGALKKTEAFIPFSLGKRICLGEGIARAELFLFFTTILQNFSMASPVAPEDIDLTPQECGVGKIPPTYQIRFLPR
# [14] = target: Cytochrome P450 2C9 (Homo sapiens, UniProt P11712); test: Inhibition of human CYP2C9 at 10 uM; assay type: ADME
# Chain of Cytochrome P450 2C9 (P11712 whole entry): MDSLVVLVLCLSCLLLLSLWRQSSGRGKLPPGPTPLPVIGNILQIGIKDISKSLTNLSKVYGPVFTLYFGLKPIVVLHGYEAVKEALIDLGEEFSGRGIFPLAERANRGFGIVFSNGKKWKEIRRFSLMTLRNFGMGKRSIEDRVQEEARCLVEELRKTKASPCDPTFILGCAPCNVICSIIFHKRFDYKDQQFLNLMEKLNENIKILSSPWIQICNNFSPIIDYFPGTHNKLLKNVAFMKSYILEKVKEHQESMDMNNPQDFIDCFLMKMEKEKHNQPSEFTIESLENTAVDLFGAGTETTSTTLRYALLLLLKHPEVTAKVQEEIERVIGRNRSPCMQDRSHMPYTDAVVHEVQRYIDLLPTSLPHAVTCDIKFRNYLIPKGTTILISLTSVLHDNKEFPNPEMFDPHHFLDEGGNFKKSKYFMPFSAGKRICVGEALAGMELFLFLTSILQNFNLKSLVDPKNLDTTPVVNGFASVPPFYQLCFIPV
# [15] = target: Cytochrome P450 2C19 (Homo sapiens, UniProt P33261); test: Inhibition of human CYP2C19 at 10 uM; assay type: ADME
# Chain of Cytochrome P450 2C19 (P33261 whole entry): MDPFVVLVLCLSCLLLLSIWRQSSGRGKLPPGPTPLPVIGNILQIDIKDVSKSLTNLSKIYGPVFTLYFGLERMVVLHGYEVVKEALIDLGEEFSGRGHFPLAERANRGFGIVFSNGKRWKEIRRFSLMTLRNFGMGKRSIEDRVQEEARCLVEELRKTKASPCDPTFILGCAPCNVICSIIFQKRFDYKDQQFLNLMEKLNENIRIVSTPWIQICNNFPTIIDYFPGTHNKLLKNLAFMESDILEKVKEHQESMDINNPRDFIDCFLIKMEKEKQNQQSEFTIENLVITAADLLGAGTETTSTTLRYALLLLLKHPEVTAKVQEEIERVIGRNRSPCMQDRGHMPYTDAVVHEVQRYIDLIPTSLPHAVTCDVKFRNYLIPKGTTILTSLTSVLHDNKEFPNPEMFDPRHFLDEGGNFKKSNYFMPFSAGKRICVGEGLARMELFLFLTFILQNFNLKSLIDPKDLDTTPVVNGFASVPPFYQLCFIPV
# [16] = target: Cytochrome P450 2D6 (Homo sapiens, UniProt P10635); test: Inhibition of human CYP2D6 at 10 uM; assay type: ADME
# Chain of Cytochrome P450 2D6 (P10635 whole entry): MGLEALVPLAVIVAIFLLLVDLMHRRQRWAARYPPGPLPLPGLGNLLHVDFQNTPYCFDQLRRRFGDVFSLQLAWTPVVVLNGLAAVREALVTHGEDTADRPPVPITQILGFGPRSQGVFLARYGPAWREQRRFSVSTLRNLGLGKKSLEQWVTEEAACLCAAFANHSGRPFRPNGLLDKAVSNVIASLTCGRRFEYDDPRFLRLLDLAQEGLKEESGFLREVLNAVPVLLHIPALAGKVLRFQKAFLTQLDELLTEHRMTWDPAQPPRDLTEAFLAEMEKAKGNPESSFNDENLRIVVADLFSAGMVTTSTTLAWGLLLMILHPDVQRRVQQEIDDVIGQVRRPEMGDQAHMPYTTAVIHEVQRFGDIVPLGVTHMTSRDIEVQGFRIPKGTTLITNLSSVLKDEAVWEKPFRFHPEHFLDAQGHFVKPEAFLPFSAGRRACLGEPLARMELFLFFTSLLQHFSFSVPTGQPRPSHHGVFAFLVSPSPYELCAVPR
# [17] = Aqueous solubility of compound at pH 1 to 7; assay type: physicochemical; settings: aqueous solution
# [18] = AUC (0 to 24 hrs) in CD rat at 50 mg/kg, po measured for 24 hrs by LC-MS/MS analysis; assay type: ADME, organism-based; set-up: time 24 hrs, dose 50 mg/kg, route po; settings: in vivo
# [19] = AUC (0 to 24 hrs) in CD rat at 200 mg/kg, po measured for 24 hrs by LC-MS/MS analysis; assay type: ADME, organism-based; set-up: dose 200 mg/kg, time 24 hrs, route po; settings: in vivo
# [20] = Cmax in CD rat at 50 mg/kg, po measured for 24 hrs by LC-MS/MS analysis; assay type: ADME, organism-based; set-up: dose 50 mg/kg, time 24 hrs, route po; settings: in vivo
# [21] = Cmax in CD rat at 200 mg/kg, po measured for 24 hrs by LC-MS/MS analysis; assay type: ADME, organism-based; set-up: time 24 hrs, dose 200 mg/kg, route po; settings: in vivo
# [22] = Tmax in CD rat at 50 mg/kg, po measured for 24 hrs by LC-MS/MS analysis; assay type: ADME, organism-based; settings: in vivo
# [23] = Tmax in CD rat at 500 mg/kg, po measured for 24 hrs by LC-MS/MS analysis; assay type: ADME, organism-based; settings: in vivo
# [24] = system: CD8-positive T cell; test: Reversal of AMP-mediated suppression of human CD8-positive T cells function assessed as increase in CD25 expression at 0.01 to 1000 nM measured after 4 days by flow cytometry; assay type: functional, cell-based; settings: dose 0.01-1000 nM, time 4.0 day
# [25] = system: CD8-positive T cell; test: Reversal of AMP-mediated suppression of human CD8-positive T cells function assessed as increase in granzyme B level at 0.01 to 1000 nM measured after 4 days by ELISA; assay type: functional, cell-based; settings: dose 0.01-1000 nM, time 4.0 day
# [26] = Drug concentration in mouse plasma at 50 mg/kg, po administered as single dose measured after 24 hrs by LC/MS analysis; assay type: ADME, organism-based
# [27] = system: EG7; test: Antitumor activity against mouse EG7 cells implanted in C57BL/6 mouse assessed as reduction in tumor volume at 100 mg/kg, po bid administered for 23 days in presence of oxaliplatin; assay type: functional, organism-based; settings: time 23.0 day
# [28] = system: EG7; test: Antitumor activity against mouse EG7 cells implanted in C57BL/6 mouse assessed as reduction in tumor volume at 100 mg/kg, po bid administered for 21 days in presence of anti-PD-L1 antibody; assay type: functional, organism-based; settings: time 21.0 day
# [29] = target: T1, 5'-nucleotidase; test: Competitive inhibition of cell surface anchored CD73 (unknown origin) expressed in human SK-MEL-28 cells assessed as inhibition constant incubated for 30 mins by malachite green assay; assay type: cell-based
structure (smiles),measurement,setting,value
C#C[C@@]1(O)[C@@H](COC(Cc2ccc(N3CCCNC3=O)cc2)(C(=O)O)C(=O)O)O[C@@H](n2cnc3c(N)nc(Cl)nc32)[C@@H]1O,Activity,[1],inactive
same,IC90,[2],3 nM
same,Ratio IC50,[3],2.2
same,IC50,[4],1.3 nM
same,IC50,[5],1.2 nM
same,IC50,[6],0.15 nM
same,IC50,[7],0.18 nM
same,IC50,[8],0.1 nM
same,fraction unbound at 10 µM,[9],0.29
same,fraction unbound at 10 µM,[10],0.58
same,fraction unbound at 10 µM,[11],0.42
same,fraction unbound,[12],0.42
same,inhibition (INH),[13],Not Active
same,inhibition (INH),[14],Not Active
same,inhibition (INH),[15],Not Active
same,inhibition (INH),[16],Not Active
same,solubility,[17],3880 µg/mL
same,AUC,[18],580 ng·h/mL
same,AUC(0-t) at 24 h,[19],6090 ng·h/mL
same,Cmax,[20],74 nM
same,Cmax,[21],1800 nM
same,Tmax,[22],48 min
same,Tmax,[23],18 min
same,Activity,[24],Active
same,Activity,[25],Active
same,concentration at 24 h,[26],> 1 nM
same,Activity,[27],Active
same,Activity,[28],Active
same,Ki,[29],0.11 nM
